According to patent US11180462B2, “Microbiocidal oxadiazole derivatives” (SYNGENTA PARTICIPATIONS AG, priority 2015, dated 2021):

How the values were obtained:
[1] = tested on: Glomerella lagenarium (Colletotrichum lagenarium); assay: Fungicidal activity against Glomerella lagenarium (Colletotrichum lagenarium) liquid culture / cucumber / preventative (anthracnose); format: cell-based; conditions: Colletotrichum orbiculare; 20 ppm in the applied formulation; liquid culture (PDB), growth inhibition measured photometrically after 3 to 4 days; compared to untreated control; read-out: disease control
How it was run: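 Photometric read-out of fungal growth after 2–7 days, expressed as percent antifungal activity versus untreated check. Cryo-stored conidia in PDB; compound at 20 ppm; dark, 24 °C, 96% RH.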

[2] = tested on: Puccinia recondita f. Sp. Tritici; assay: Fungicidal activity against Puccinia recondita f. sp. tritici / wheat / leaf disc preventative (brown rust); format: in vivo; conditions: foliar, 200 ppm in the applied formulation, wheat leaf segments, preventative, compared to untreated control leaf disks, read-out: disease control
How it was run: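 Preventative leaf-segment test, wheat cv. Kanzler on water agar. Spray compound at 200 ppm, inoculate with spores 1 day later; 19° C., 75% rh, 12/12 h light. Read-out: % disease control vs untreated, 7 to 9 days after application.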

[3] = tested on: Puccinia recondita f. Sp. Tritici; assay: Fungicidal activity against Puccinia recondita f. sp. tritici / wheat / leaf disc curative (brown rust); format: in vivo; conditions: foliar, 24 h, 200 ppm in the applied formulation, wheat leaf segments, curative (applied 1 day after inoculation), compared to untreated control leaf disks, read-out: disease control
How it was run: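 Scoring is percent disease control relative to untreated segments, made 6 to 8 days after treatment. Wheat (cv. Kanzler) leaf segments received the formulated, water-diluted compound one day post-inoculation with spores, having been kept dark at 19° C and 75% RH, then incubated under 12 h light/12 h dark at the same temperature and humidity.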

Phakopsora Pachyrhizi = assay: Fungicidal activity against Phakopsora pachyrhizi / soybean / leaf disc preventative (Asian soybean rust); format: in vivo; conditions: foliar, 200 ppm in the applied formulation, soybean leaf disks, compared to untreated control leaf disks, read-out: disease control
How it was run: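 Preventative soybean leaf-disc test: discs on water agar sprayed with diluted formulated compound, inoculated one day later with spores on the lower surface. Held 24–36 h dark at 20°C, 75% rh, then 12 h light/day; percent disease control versus untreated discs scored 12–14 days after application.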

CN(Cc1ccc(-c2noc(C(F)(F)F)n2)cc1)C(=O)C1CC1F (stereo not shown) [Compound 1.529, 2-fluoro-N-methyl-N-[[4-[5-(trifluoromethyl)-1,2,4-oxadiazol-3-yl]phenyl]methyl]-cyclopropane-carboxamide]
≥ 80%: inhibition of growth at 20 ppm [1] | pest or weed control at 200 ppm [2] | pest or weed control at 200 ppm [3] | pest or weed control at 200 ppm (Phakopsora Pachyrhizi)

O=C(C1CC1(Cl)Cl)N(Cc1ccc(-c2noc(C(F)(F)F)n2)cc1)C1CC1 (stereo not shown) [Compound 1.125, 2,2-dichloro-N-cyclopropyl-N-[[4-[5-(trifluoromethyl)-1,2,4-oxadiazol-3-yl]phenyl]methyl]-cyclopropane-carboxamide]
≥ 80%: inhibition of growth at 20 ppm [1] | pest or weed control at 200 ppm [2] | pest or weed control at 200 ppm [3] | pest or weed control at 200 ppm (Phakopsora Pachyrhizi)

O=C(CC1CC1(F)F)N(Cc1ccc(-c2noc(C(F)(F)F)n2)cc1)C1CC1 (stereo not shown) [Compound 1.138, N-cyclopropyl-2-(2,2-difluorocyclopropyl)-N-[[4-[5-(trifluoromethyl)-1,2,4-oxadiazol-3-yl]phenyl]methyl]-acetamide]
≥ 80%: inhibition of growth at 20 ppm [1] | pest or weed control at 200 ppm [2] | pest or weed control at 200 ppm [3] | pest or weed control at 200 ppm (Phakopsora Pachyrhizi)

O=C(C1CC1(F)F)N(Cc1ccc(-c2noc(C(F)(F)F)n2)cc1)C1COC1 (stereo not shown) [Compound 1.739, 2,2-difluoro-N-(oxetan-3-yl)-N-[[4-[5-(trifluoromethyl)-1,2,4-oxadiazol-3-yl]phenyl]methyl]-cyclopropane-carboxamide]
≥ 80%: inhibition of growth at 20 ppm [1] | pest or weed control at 200 ppm [2] | pest or weed control at 200 ppm [3] | pest or weed control at 200 ppm (Phakopsora Pachyrhizi)

CCN(Cc1ccc(-c2noc(C(F)(F)F)n2)cc1)C(=O)C1CC1(F)F (stereo not shown) [Compound 1.504, N-ethyl-2,2-difluoro-N-[[4-[5-(trifluoromethyl)-1,2,4-oxadiazol-3-yl]phenyl]methyl]-cyclopropane-carboxamide]
≥ 80%: inhibition of growth at 20 ppm [1] | pest or weed control at 200 ppm [2] | pest or weed control at 200 ppm [3] | pest or weed control at 200 ppm (Phakopsora Pachyrhizi)

CC(=O)CC(C)C(=O)N(Cc1ccc(-c2noc(C(F)(F)F)n2)cc1)C1CC1 (stereo not shown) [Compound 1.95, N-cyclopropyl-2-methyl-4-oxo-N-[[4-[5-(trifluoromethyl)-1,2,4-oxadiazol-3-yl]phenyl]methyl]-pentanamide]
≥ 80%: inhibition of growth at 20 ppm [1] | pest or weed control at 200 ppm [2] | pest or weed control at 200 ppm [3] | pest or weed control at 200 ppm (Phakopsora Pachyrhizi)

CON(Cc1ccc(-c2noc(C(F)(F)F)n2)cc1)C(=O)CCCCC(F)(F)F [Compound 1.53, 6,6,6-trifluoro-N-methoxy-N-[[4-[5-(trifluoromethyl)-1,2,4-oxadiazol-3-yl]phenyl]methyl]-hexanamide]
≥ 80%: inhibition of growth at 20 ppm [1] | pest or weed control at 200 ppm [2] | pest or weed control at 200 ppm [3] | pest or weed control at 200 ppm (Phakopsora Pachyrhizi)

O=C(C1CCCO1)N(Cc1ccc(-c2noc(C(F)(F)F)n2)cc1)C1CC1 (stereo not shown) [Compound 1.145, N-cyclopropyl-N-[[4-[5-(trifluoromethyl)-1,2,4-oxadiazol-3-yl]phenyl]methyl]-tetrahydrofuran-2-carboxamide]
≥ 80%: inhibition of growth at 20 ppm [1] | pest or weed control at 200 ppm [2] | pest or weed control at 200 ppm [3] | pest or weed control at 200 ppm (Phakopsora Pachyrhizi)

CON(Cc1ccc(-c2noc(C(F)(F)F)n2)cc1)C(=O)c1ccccc1 [Compound 1.3, N-methoxy-N-[[4-[5-(trifluoromethyl)-1,2,4-oxadiazol-3-yl]phenyl]methyl]-benzamide]
≥ 80%: inhibition of growth at 20 ppm [1] | pest or weed control at 200 ppm [2] | pest or weed control at 200 ppm [3] | pest or weed control at 200 ppm (Phakopsora Pachyrhizi)

COCC(=O)N(Cc1ccc(-c2noc(C(F)(F)F)n2)cc1)C(C)C [Compound 1.600, N-isopropyl-2-methoxy-N-[[4-[5-(trifluoromethyl)-1,2,4-oxadiazol-3-yl]phenyl]methyl]-acetamide]
≥ 80%: inhibition of growth at 20 ppm [1] | pest or weed control at 200 ppm [2] | pest or weed control at 200 ppm [3] | pest or weed control at 200 ppm (Phakopsora Pachyrhizi)

CCCN(Cc1ccc(-c2noc(C(F)(F)F)n2)cc1)C(=O)CC#N [Compound 1.664, 2-cyano-N-propyl-N-[[4-[5-(trifluoromethyl)-1,2,4-oxadiazol-3-yl]phenyl]methyl]-acetamide]
≥ 80%: inhibition of growth at 20 ppm [1] | pest or weed control at 200 ppm [2] | pest or weed control at 200 ppm [3] | pest or weed control at 200 ppm (Phakopsora Pachyrhizi)

CCON(Cc1ccc(-c2noc(C(F)(F)F)n2)cc1)C(=O)CCCOC [Compound 1.625, N-ethoxy-4-methoxy-N-[[4-[5-(trifluoromethyl)-1,2,4-oxadiazol-3-yl]phenyl]methyl]-butanamide]
≥ 80%: inhibition of growth at 20 ppm [1] | pest or weed control at 200 ppm [2] | pest or weed control at 200 ppm [3] | pest or weed control at 200 ppm (Phakopsora Pachyrhizi)

CCC(=O)N(Cc1ccc(-c2noc(C(F)(F)F)n2)cc1)CC1CC1 [Compound 1.227, N-(cyclopropylmethyl)-N-[[4-[5-(trifluoromethyl)-1,2,4-oxadiazol-3-yl]phenyl]methyl]-propanamide]
≥ 80%: inhibition of growth at 20 ppm [1] | pest or weed control at 200 ppm [2] | pest or weed control at 200 ppm [3] | pest or weed control at 200 ppm (Phakopsora Pachyrhizi)

O=C(C1CCCO1)N(Cc1ccc(-c2noc(C(F)(F)F)n2)cc1)CC1CC1 (stereo not shown) [Compound 1.242, N-(cyclopropylmethyl)-N-[[4-[5-(trifluoromethyl)-1,2,4-oxadiazol-3-yl]phenyl]methyl]-tetrahydrofuran-2-carboxamide]
≥ 80%: inhibition of growth at 20 ppm [1] | pest or weed control at 200 ppm [2] | pest or weed control at 200 ppm [3] | pest or weed control at 200 ppm (Phakopsora Pachyrhizi)

CC(=O)NCC(=O)N(C)Cc1ccc(-c2noc(C(F)(F)F)n2)cc1 [Compound 1.521, 2-acetamido-N-methyl-N-[[4-[5-(trifluoromethyl)-1,2,4-oxadiazol-3-yl]phenyl]methyl]-acetamide]
≥ 80%: inhibition of growth at 20 ppm [1] | pest or weed control at 200 ppm [2] | pest or weed control at 200 ppm [3] | pest or weed control at 200 ppm (Phakopsora Pachyrhizi)

COCCN(Cc1ccc(-c2noc(C(F)(F)F)n2)cc1)C(=O)C1CC1 [Compound 1.363, N-(2-methoxyethyl)-N-[[4-[5-(trifluoromethyl)-1,2,4-oxadiazol-3-yl]phenyl]methyl]-cyclopropane-carboxamide]
≥ 80%: inhibition of growth at 20 ppm [1] | pest or weed control at 200 ppm [2] | pest or weed control at 200 ppm [3] | pest or weed control at 200 ppm (Phakopsora Pachyrhizi)
